Assay results as given in patent US12528767B2, “HDAC6 inhibitors and uses thereof” (Eikonizo Therapeutics, Inc., priority 2019, dated 2026).

Test system: adult primary rat dorsal root ganglia (DRG)
Experiment: In vitro chemotherapy-induced peripheral neuropathy in rat DRGs treated with cisplatin
Format: cell-based, Sprague Dawley rat
Details: 5 μM compound + 0.5 mM cisplatin, 4 days
Description: ACY-1083, obtained from MedChem Express, is a published HDAC6-selective inhibitor and was used as a benchmark. Blinded DMSO was used as an additional negative control. […] Nerve degeneration was evaluated by blebs per area as visualized by fluorescent imaging of beta tubulin staining. Axon area was also evaluated by fluorescent imaging of beta tubulin staining.
Select exemplary compounds were evaluated for prevention of nerve degeneration in an in vitro chemotherapy induced neuropathy model using adult primary rat dorsal root ganglia (DRG). Compounds were blinded for treatment and analysis, using DMSO as a vehicle control. […] Blebs (fragments) signify the beginning of the nerve degeneration process. Total axon area is related to neuron survival and is a more general measure of neuroprotection.
Dissociation solution (100 mL of HBSS with 2 mL of HEPES (1 M, pH 7.25)) was prepared and precooled to 4° C. on study day 1. A 24 well cell culture plate was coated with ECL. Each well was coated with 0.3 mL of ECL solution (1:25 in sterile PBS) and incubated overnight at 37° C. ECL solution was aspirated and the well plate was rinsed with neurobasal medium on study day 2. […]

In the case of O=C(NO)c1cc(F)c2c(c1)CCN1CCC[C@@H]21 (single isomer, unassigned) [compound 79], the “Axon area compared to vehicle in the presence of cisplatin (FIG. 3B)” value is reported as “increased axon area”.
With O=C(NO)c1ccc(CN2C[C@H]3CC[C@@H]2CO3)c(F)c1 (single isomer, unassigned) [compound 173] the “Nerve degeneration: blebs per area compared to vehicle in the presence of cisplatin (FIG. 3A)” value was “decreased blebs per area”.
